Test results: patent publication US6552069B1, “3-methyl-chroman and -thiochroman derivatives” (Chugai Seiyaku Kabushiki Kaisha, priority 1999, dated 2003)

test system: estradiol-induced increase in uterine weight; assay: Anti-estrogenic activity (oral administration) in ovariectomized mice administered with 17β-estradiol; type: in vivo; settings: 10 mg/kg p.o. once a day for 3 days, suspended in 5% arabic gum, ovariectomized ICR mice given 17β-estradiol-benzoate 0.1 μg/mouse s.c. for 3 days, uteri weighed 24 hours after last administration
Protocol: Test compounds were assayed for their oral anti-estrogenic activity in the following manner. In this experiment, the compounds prepared in Examples mentioned above were used as test compounds. As control compounds, the following three were used: a compound described in Example 7 of WO98/25916; ZM; and a compound corresponding to general formula (1) of the present invention, provided that R2 was a C2 perfluoroalkyl group (perfluoroethyl), i.e., 10-[(3RS,4RS)-7-hydroxy-3-(4-hydroxyphenyl)-3-methylthiochroman-4-yl]-2-(4,4,5,5,5-pentafluoropentyl)decanoic acid, which had been synthesized according to Reaction Schemes 1 to 7 mentioned above.
In this experiment, each of the test and control compounds was suspended in 5% arabic gum solution and orally administered for 3 days on a once-a-day basis. After 24 hours from the last administration, the test animals were sacrificed and the uteri were removed and weighed.

Q: For `C[C@@]1(c2ccc(O)cc2)CSc2cc(O)ccc2[C@@H]1CCCCCCCCC(CCCC(F)(F)C(F)(F)F)C(=O)O` (mixture of isomers) [10-[(3RS,4RS)-7-hydroxy-3-(4-hydroxyphenyl)-3-methylthiochroman-4-yl]-2-(4,4,5,5,5-pentafluoropentyl)decanoic acid, reference compound], which inhibition in vivo at 10 mg/kg is on record?
A: 75%

Q: With `C[C@@]1(c2ccc(O)cc2)CSc2cc(O)ccc2[C@@H]1CCCCCCCCC(CCC(F)(F)C(F)(F)C(F)(F)C(F)(F)F)C(=O)O` (mixture of isomers) [Example 8, 10-[(3RS,4RS)-7-hydroxy-3-(4-hydroxyphenyl)-3-methylthiochroman-4-yl]-2-(3,3,4,4,5,5,6,6,6-nonafluorohexyl)decanoic acid] as the compound, how does the inhibition in vivo at 10 mg/kg read?
A: 93%

Q: With `C[C@@]1(c2ccc(O)cc2)CSc2cc(O)ccc2[C@@H]1CCCCCCCCC(CCCC(F)(F)C(F)(F)C(F)(F)C(F)(F)F)C(=O)O` (mixture of isomers) [Example 9, 10-[(3RS,4RS)-7-hydroxy-3-(4-hydroxyphenyl)-3-methylthiochroman-4-yl]-2-(4,4,5,5,6,6,7,7,7-nonafluoroheptyl)decanoic acid] as the compound, how does the inhibition in vivo at 10 mg/kg read?
A: 93%

Q: How did the inhibition in vivo at 10 mg/kg turn out when `C[C@@]1(c2ccc(O)cc2)CSc2cc(O)ccc2[C@@H]1CCCCCCCCCC(CCC(F)(F)C(F)(F)C(F)(F)C(F)(F)F)C(=O)O` (mixture of isomers) [Example 11, 11-[(3RS,4RS)-7-hydroxy-3-(4-hydroxyphenyl)-3-methylthiochroman-4-yl]-2-(3,3,4,4,5,5,6,6,6-nonafluorohexyl)undecanoic acid] was run?
A: 85%

Q: For `C[C@@]1(c2ccc(O)cc2)CSc2cc(O)ccc2[C@@H]1CCCCCCCCCC(CCCC(F)(F)C(F)(F)C(F)(F)C(F)(F)F)C(=O)O` (mixture of isomers) [Example 12, 11-[(3RS,4RS)-7-hydroxy-3-(4-hydroxyphenyl)-3-methylthiochroman-4-yl]-2-(4,4,5,5,6,6,7,7,7-nonafluoroheptyl)undecanoic acid], which inhibition in vivo at 10 mg/kg is on record?
A: 86%

Q: `C[C@@]1(c2ccc(O)cc2)COc2cc(O)ccc2[C@@H]1CCCCCCCCC(CCC(F)(F)C(F)(F)C(F)(F)C(F)(F)F)C(=O)O` (mixture of isomers) [Example 13, 10-[(3RS,4RS)-7-hydroxy-3-(4-hydroxyphenyl)-3-methylchroman-4-yl]-2-(3,3,4,4,5,5,6,6,6-nonafluorohexyl)decanoic acid] was tested. Which inhibition in vivo at 10 mg/kg did it give?
A: 84%

Q: How did the inhibition in vivo at 10 mg/kg turn out when `C[C@@]1(c2ccc(O)cc2)COc2cc(O)ccc2[C@@H]1CCCCCCCCCC(CCC(F)(F)C(F)(F)C(F)(F)C(F)(F)F)C(=O)O` (mixture of isomers) [Example 14, 11-[(3RS,4RS)-7-hydroxy-3-(4-hydroxyphenyl)-3-methylchroman-4-yl]-2-(3,3,4,4,5,5,6,6,6-nonafluorohexyl)undecanoic acid] was run?
A: 88%

Q: `C[C@@]1(c2ccc(O)cc2)COc2cc(O)ccc2[C@@H]1CCCCCCCCC(CCCC(F)(F)C(F)(F)C(F)(F)C(F)(F)F)C(=O)O` (mixture of isomers) [Example 15, 10-[(3RS,4RS)-7-hydroxy-3-(4-hydroxyphenyl)-3-methylchroman-4-yl]-2-(4,4,5,5,6,6,7,7,7-nonafluoroheptyl)decanoic acid] was tested. Which inhibition in vivo at 10 mg/kg did it give?
A: 92%

Q: `C[C@@]1(c2ccc(O)cc2)COc2cc(O)ccc2[C@@H]1CCCCCCCCCC(CCCC(F)(F)C(F)(F)C(F)(F)C(F)(F)F)C(=O)O` (mixture of isomers) [Example 16, 11-[(3RS,4RS)-7-hydroxy-3-(4-hydroxyphenyl)-3-methylchroman-4-yl]-2-(4,4,5,5,6,6,7,7,7-nonafluoroheptyl)undecanoic acid] was tested. Which inhibition in vivo at 10 mg/kg did it give?
A: 91%

Q: For `C[C@@]1(c2ccc(O)cc2)CSc2cc(O)ccc2[C@@H]1CCCCCCCCC(CCC(F)(F)C(F)(F)C(F)(F)C(F)(F)F)C(=O)O` (single isomer, unassigned) [Example 21, Peak 1], which inhibition in vivo at 10 mg/kg is on record?
A: 89%

Q: Which inhibition in vivo at 10 mg/kg does the source give for `CC1(c2ccc(O)cc2)COc2cc(O)ccc2C1CCCCCCCCCC(CCC(F)(F)C(F)(F)C(F)(F)C(F)(F)F)C(=O)O` (single isomer, unassigned) [Example 24, Peak 1, 11-[7-hydroxy-3-(4-hydroxyphenyl)-3-methylchroman-4-yl]-2-(3,3,4,4,5,5,6,6,6-nonafluorohexyl)undecanoic acid] here?
A: 85%
